“Also recorded” adds a separate entry of the source. Where two headings read alike, the source gives them in different places.
Assays:
Assay type in all cases: cell-based, mice
[1] = test system: GABAB-GIRK currents in LHb neurons; conditions: for I-baclofen, residual current independent of GIRKs: barium 1 mM in the bath
LHb neurons [2] = assay: Cell-attached recording of spontaneous firing of LHb neurons; conditions: baclofen application, then CGP54626 10 μM
Experimental: (§1) Animals were anesthetized with Ketamine/Xylazine (50 mg/10 mg Kg-1 i.p.; Sigma-Aldrich, France). The preparation of LHb-containing brain slices was done in bubbled ice-cold 95% O2/5% CO2-equilibrated solution containing (in mM): cholineCl 110; glucose 25; NaHCO3 25; MgCl2 7; ascorbic acid 11.6; Na+-pyruvate 3.1; KCl 2.5; NaH2PO4 1.25; CaCl2 0.5. Sagittal slices (250 μm) were stored at room temperature in 95% O2/5% CO2-equilibrated artificial cerebrospinal fluid (ACSF) containing (in mM): NaCl 124; NaHCO3 26.2; glucose 11; KCl 2.5; CaCl2 2.5; MgCl2 1.3; NaH2PO4 1. Recordings (flow rate of 2.5 ml/min) were made under an Olympus-BX51 microscope (Olympus, France) at 32° C. Currents were amplified, filtered at 5 kHz and digitized at 20 kHz. Access resistance was monitored by a step of −4 mV (0.1 Hz). Experiments were discarded if the access resistance increased more than 20%.
(§2) The internal solution to measure GABAB-GIRK currents and neuronal excitability contained 140 mM potassium gluconate, 4 mM NaCl, 2 mM MgCl2, 1.1 mM EGTA, 5 mM HEPES, 2 mM Na2ATP, 5 mM sodium creatine phosphate, and 0.6 mM Na3GTP (pH 7.3), with KOH. When we measured the synaptic inhibitory or excitatory release the internal solution contained (in mM): CsCl 130; NaCl 4; MgCl2 2; EGTA 1.1; HEPES 5; Na2ATP 2; Na+-creatine-phosphate 5; Na3GTP 0.6, and spermine 0.1. The liquid junction potential was −3 mV. For cell-attached recordings the internal solution consisted in ACSF.
(§3) Cell-attached recordings in ACSF were performed in GΩ seal with a Vc=0 and Hc=0. Whole-cell voltage clamp recordings were achieved to measure GABAB-GIR currents in presence of Bicuculine (10 μM), NBQX (20 μM) and AP5 (50 μM). […] GABAB-GIRK currents were confirmed by antagonism with either 10 μM of CGP54626, a specific GABAB antagonist or 1 mM Ba^2, a selective inhibitor of inward rectifiers. For the GTPγS experiment, 100 μM of GTPγS was added to the internal solution in place of Na3GTP.

LHb neurons [3] = assay: Current-clamp excitability (evoked action potentials, input-output curve) of LHb neurons in slices; conditions: baclofen bath application, saturating dose
Experimental: as §1, §2
For the Okadaic acid (OA) and the CaMKII inhibitor KN93 experiments, respectively 100 nM of OA or 10 μM of KN93 were added in the internal solution. For the PP2A inhibitor LB100 experiments, LB100 (0.1 μM) was applied in the bath. Miniature excitatory postsynaptic currents (mEPSCs) were recorded in voltage-clamp mode at −60 mV in presence of bicuculine (10 μM) and TTX (1 μM). Miniature inhibitory postsynaptic currents (mIPSCs) were recorded (−60 mV) in presence of NBQX (20 μM) and TTX (1 μM). EPSCs and IPSCs were evoked through an ACSF filled monopolar glass electrode placed 200 μm from the recording site in the stria medullaris. AMPA:NMDA ratios of evoked-EPSC were obtained by AMPA-EPSC −60 mV/NMDA-EPSCs at +40 mV. Rectification Index (RI) was computed by […]-60/AMPA-EPSC+40. For the experiments in which high-frequency stimulation trains were used to determine presynaptic release probability, QX314 (5 mM) was included in the internal solution to prevent the generation of sodium spikes. Current-clamp experiments, were performed by a series of current steps (negative to positive) injected to induce action potentials (5-10 pA injection current per step, 800 ms).

GIRK channels = assay: GTPγS-induced Ba2+-sensitive outward current (I-GTPγS) in LHb neurons of brain slices; conditions: GTPγS 100 μM in the internal solution
Experimental: as §1, §3

[4] = KN93 10 μM intracellular dialysis
[5] = Okadaic acid 100 nM intracellular dialysis

COc1ccc(S(=O)(=O)N(CCO)c2ccccc2CN(C)C/C=C/c2ccc(Cl)cc2)cc1 [KN93]
I-baclofen current ([1]; KN93 10 μM in the internal solution, CTRL mice): 106.3±18.37 pA
FsE induced reduction of GABAB-GIRK currents [1, 4]: failed to recover; also recorded: does not affect
I-Baclofen at baseline (control mice) [1, 4]: did not affect

C=C1[C@@H](O)[C@@H]2O[C@]3(CC[C@H](/C=C/[C@@H](C)[C@@H]4CC(C)=C[C@@]5(O[C@H](C[C@@](C)(O)C(=O)O)CC[C@H]5O)O4)O3)CC[C@H]2O[C@@H]1[C@@H](O)C[C@H](C)[C@H]1O[C@@]2(CCCCO2)CC[C@H]1C [Okadaic Acid]
I-baclofen current ([1]; Okadaic Acid 100 nM in the internal solution, CTRL mice): 130.7±25.25 pA
I-baclofen current ([1]; Okadaic Acid 100 nM in the internal solution, FsE mice): 120.4±25.61 pA
I-baclofen CTRL vs FsE ([1]; Okadaic Acid 100 nM intracellular dialysis, listed as OA): comparable to control mice
I-Baclofen at baseline (control mice) [1, 5]: comparable to naïve condition
I-baclofen CTRL vs FsE [1, 5]: no difference between groups

NCC(CC(=O)O)c1ccc(Cl)cc1 (centres unmarked) [baclofen]
I baclofen ([1]; 1 h after exposure to fox urine (OPE mice)): 47.4±7.9
I baclofen ([1]; CTRL mice of odor predator exposure paradigm): 110.5±29.1
I-baclofen ([1]; CTRL mice of restraint stress procedure): 121.7±14.8
I-baclofen ([1]; baclofen 100 μM, FsE mice, 1 hour after): 55.4±7.2 pA
I-baclofen ([1]; baclofen 100 μM, FsE mice, 1 day after): 59.8±9.6 pA
I-baclofen ([1]; baclofen 100 μM, FsE mice, 7 days after): 40.1±9.0 pA
I-baclofen ([1]; baclofen 100 μM, FsE mice, 14 days after): 39.6±6.6 pA
I-baclofen ([1]; baclofen 100 μM, FsE mice, 30 days after): 133.0±26.1 pA
I-baclofen, residual current independent of GIRKs ([1]; CTRL mice): 21.3±3.7
I-baclofen, residual current independent of GIRKs ([1]; FsE mice): 21.3±9.1
I-baclofen ([1]; restraint stress (RS) mice, 1 h after the procedure): 68.3±15.3
Firing rate of LHb neurons (LHb neurons [2]; CTRL mice): 0.33±0.11 Hz
Firing rate of LHb neurons (LHb neurons [2]; FsE mice): 4.89±1.40 Hz
Firing of LHb neurons evoked by current steps (20 pA) (LHb neurons [3]; FsE animals): only partially decreased
Firing of LHb neurons evoked by current steps (20 pA) (LHb neurons [3]; control mice): significantly depressed

[Ba+2] [barium]
Effect on I-Baclofen ([1]; barium 1 mM): abolished

Nc1nc2c(ncn2[C@@H]2O[C@H](COP(=O)(O)OP(=O)(O)OP(O)(O)=S)[C@@H](O)[C@H]2O)c(=O)[nH]1 [GTPγS, reference compound]
GTPγS-evoked Ba2+-sensitive outward current (GIRK channels; CTRL mice): 92.55±21.83 pA
GTPγS-evoked Ba2+-sensitive outward current (GIRK channels; FsE mice): 38.00±5.27 pA

C[C@H](NC[C@H](O)CP(=O)(O)CC1CCCCC1)c1ccc(Cl)c(Cl)c1 [CGP54626]
Reversal of I-baclofen ([1]; CGP54626 10 μM): fully reversed; also recorded: readily reversed
Firing rate of LHb neurons (LHb neurons [2]; CTRL mice): 3.62±0.65 Hz
Firing rate of LHb neurons (LHb neurons [2]; FsE mice): 8.23±2.25 Hz

Source: patent publication US10413541B2, “Oxabicycloheptanes and oxabicycloheptenes for the treatment of depressive and stress disorders” (LIXTE BIOTECHNOLOGY, INC., priority 2015, dated 2019)
